In a melting point compilation (Tetko et al.; mined from patent text by program, amines drawn as free bases though some values may be those of a salt):

Structure (SMILES)	melting point
CC(C)(C)OC(=O)c1cc(O[C@H]2CC[C@H](NC(=O)Nc3ccc(Cl)c(C(F)(F)F)c3)CC2)ccn1	101 to 117 °C
CN1C(=O)[C@H](NC(=O)/C=C/c2ccc([N+](=O)[O-])cc2)N=C(c2ccccc2)c2ccccc21	165 to 166 °C
COc1ccc(Br)c(-c2nc(=S)n(Cc3ccccc3)[nH]2)c1	154 to 155 °C
Nc1c(Cl)cc(C(O)CNCCCCCCOCCCc2ccccn2)cc1Cl (stereo not given)	38 to 41 °C
O=C1Nc2ccccc2SC1=Cc1ccc(Cl)cc1	238 to 240 °C
CCNc1cc(Cl)nc(C#N)c1[N+](=O)[O-]	120 °C
O=C(Nc1cccnc1)N1N=CCC1c1ccccc1 (stereo not given)	104 to 106 °C
CCC#CCOc1ccc(C=O)cc1OC	47 to 50 °C
CC(C)n1c(=O)oc2cc(N3C[C@H](C(N)=O)OC3=O)ccc21	182 to 184 °C
Cc1cccc(C)c1NC(=O)CCC1CCC(=O)N1 (stereo not given)	206 to 208 °C
CCOP(=O)(/C=C/c1cn(-c2ccccc2)nc1OCc1ccc(OCc2nc(-c3cccc(C(=O)O)c3)oc2C)cc1)OCC	153 to 155 °C
COc1cc(OC)c(C(=O)N(C)OC)cc1Cl	97 to 99 °C
CNc1nc(-c2cccc(NC(=O)c3ccc(O)cc3)c2)c2cc(OC)c(OC)cc2n1	178 to 180 °C
Cc1nsc(N=Nc2ccc(N(CCO)CCO)cc2NC(=O)C(C)C)c1C#N	152 to 154 °C
COc1ccc(C(F)(F)F)cc1NC(=N)Nc1cccc(C(F)(F)F)c1	45 to 47 °C
CN1CCN(c2cc3c(Br)cccc3c(=O)[nH]2)CC1CO (stereo not given)	200 to 202 °C
CCC(=O)N1C(=O)OC(C)(C)[C@@H]1C	86 °C
CCCC1CCC(C2Cc3c4c(c(F)c(F)c3O2)OCCC4)CC1 (stereo not given)	96 °C
CCOC(=O)/C=C(C)/C=C/C=C(\C)C1=Cc2cc(C)ccc2OC1	135 °C
O=C(/C=C/c1ccccc1[N+](=O)[O-])N1CCN(C(=O)c2cc(C(F)(F)F)cc(C(F)(F)F)c2)[C@H](Cc2c[nH]c3ccccc23)C1	125 to 133 °C
CC(=O)OCCn1c2ccccc2c2ccccc21	73 to 74.5 °C
Cc1cc(-c2ccc(C(F)(F)F)nc2)cc(-c2cccc(-c3cccc(S(=O)(=O)NC(C)(C)C)c3)n2)n1	187 to 188 °C
CC(C)NC(COc1ccccc1C(=O)Nc1cccc2[nH]ccc12)NC(C)C	180 °C
O=C(OC1CCCCC1)c1ncn2c1[C@@H]1CCN1C(=O)c1c(Br)cccc1-2	203 to 204 °C
CCc1nc2c(C)cc(C)nc2n1Cc1ccc(C(=Cc2nnn[nH]2)c2ccc(C(F)(F)F)cc2)cc1	124 to 129 °C

Structure (SMILES)	melting point
CC[C@H](C)[C@H](NC(=O)NCc1ccccc1)C(=O)N[C@H](CO)Cc1c[nH]c2ccccc12	132 to 133 °C
O=c1ccn(-c2ccc(N3CCOCC3)cc2)nc1-c1ccnn1-c1ccccc1	205 to 206 °C
c1ccc(CN(Cc2ccccc2)OCCCCCCCCON(Cc2ccccc2)Cc2ccccc2)cc1	49 to 51 °C
COc1ccc(C(=O)N2CCc3cc(O)c(OC)cc3C2)cc1	173 to 174 °C
N#CCc1ccccc1NC(=O)C(F)(F)C(F)(F)C(F)(F)F	76 to 79 °C
Oc1ccc2nc(-c3cccc4c(Br)c(O)ccc34)oc2c1	221 to 223 °C
CCN(c1nc(C)cc(C)n1)c1ccc(CC=NOC)cc1S(C)(=O)=O	151 to 154 °C
CC1=C(C(O)c2ccc3c(c2)CN(C(N)=O)CC3)C(C)(C)CCC1 (stereo not given)	88.2 to 89.5 °C
O=C1CCC(n2cnc3cccc(Cl)c3c2=O)C(=O)N1 (stereo not given)	308 to 310 °C
O=C1CC[C@@H]([N+](=O)[O-])[C@H](c2ccc(Cl)cc2)N1 (relative stereo)	148 to 150 °C
CCNC(=O)c1cc(N)c(N)cc1OC	65 to 67 °C
CN(C)Cc1nc(C(=O)O)nn1-c1ccc(Cl)cc1C(=O)c1ccccc1Cl	110 to 113 °C
OCCc1ccc(-c2ccccc2)s1	74 °C
c1ccc(Cn2ccnc2COc2nn3c(-c4ccon4)nnc3c3ccccc23)cc1	198 °C
CC(Oc1ncn(-c2ccc(C(F)(F)F)cc2)n1)C(N)=O (stereo not given)	178 to 180 °C
CCCCCCCCCCN1CC(C(=O)OC)N(S(=O)(=O)c2ccc(-c3ccc(Br)cc3)cc2)CC1=O (stereo not given)	117 to 118 °C
COC(=O)C(C)Oc1cccc2c1c(C(=O)C(N)=O)c(C)n2Cc1ccccc1 (stereo not given)	175 °C
Cn1cc(CS(C)(=O)=O)c(=O)c2ccc(Cl)cc21	215 to 216 °C
CN(Cc1ccccn1)C(=S)Nc1ccc(C#N)cc1	171 °C
O=C1CCCN1C(=O)Oc1ccccc1[N+](=O)[O-]	135 to 136 °C
O=COC[C@@H]1C(=O)N[C@H]1SC(c1ccccc1)(c1ccccc1)c1ccccc1 (relative stereo)	143 to 144 °C
O=c1oc(-c2ccccc2)cc(O)c1N(Cc1ccccc1)Cc1ccccc1	130 to 135 °C
CCN(CC)CCNC(=O)c1cc(Cl)c(N)cc1OC1OCCO1	93 to 95 °C
COC(=O)NN=C(C)c1cc(Cl)ccc1NS(=O)(=O)C(F)(F)F	211 to 214 °C
CSCC[C@H](NC(=O)N[C@@H](CCSC)C(=O)O)C(=O)O	167 to 180 °C

Structure (SMILES)	melting point
CN1Cc2c(C#N)ccc3scc(c23)S1(=O)=O	238 °C
Cc1cc(C(=O)O)ccc1C(N)(CC1c2ccccc2Oc2ccccc21)C(=O)O (stereo not given)	215 to 216 °C
CC(=O)NC1(C)CC(C)(C)CC(C)(C)C1	110 °C
CSc1ccc2c(c1)CCN2C(=O)Nc1cccnc1	160 to 162 °C
CC(=O)Nc1nc(O)c2cc(C=Cc3ccc(C(=O)O)cc3)cnc2n1	> 300 °C
Clc1cncc(-n2cccc2)c1	70.5 to 72 °C
COc1ccc(S(=O)(=O)n2ccc3ccnc(-c4ccncc4)c32)cc1	193 to 194 °C
CCc1[nH]c(=S)[nH]c1-c1cc(C(C)(C)C)c(O)c(C(C)(C)C)c1	279 to 281 °C
O=C(Nc1cnc2cnc(-c3ccc(O)cc3)nc2c1)c1ccncc1	230 to 232 °C
CC(C)(C)c1ccc(C(N)=O)cc1[N+](=O)[O-]	114 to 115 °C
Nc1ncc(C#Cc2ccc(Cl)cc2)c(OC2CCC(=O)CC2)n1	168 to 172 °C
O=C(c1ccc(F)cc1)C1CCN(CC2CCc3onc(-c4ccccc4F)c3C2=O)CC1 (stereo not given)	99 to 102 °C
CCCc1nc(C)nc(NN)c1Cc1ccc(-c2ccccc2C#N)cc1	156 °C
N#CCc1ccc(CC(=O)O)c(S(N)(=O)=O)c1	125 to 129 °C
Cc1nc(-n2cc(COc3ccccc3)nn2)sc1C(=O)NCc1ccccc1	140 to 143 °C
CCCCn1c(=O)c2nn(S(=O)(=O)c3ccc4ccccc4c3)cc2n(CCCC)c1=O	167 to 168 °C
Cc1ccccc1C(=O)c1ccsc1C(=O)O	115 to 117 °C
COc1cc2c(N3CCc4ccc(Cl)cc43)ncnc2c(OC)c1OC	139 to 143 °C
CC(CCCC(C)C1CCC2C3CC=C4C(C)(C)C(O)CCC4(C)C3CCC12C)CO[Si](C)(C)C(C)(C)C (stereo not given)	88.5 °C
O=c1c2cc(Cl)c(Cl)cc2nc2n1CS(=O)(=O)N2	> 300 °C
NS(=O)(=O)c1ccc(NC(=O)CNc2ccccc2)c(Br)c1	179 to 181 °C
CS(=O)(=O)N(CC1CCCCC1)CC(O)(Cn1cncn1)c1ccc(Cl)cc1Cl (stereo not given)	168 to 169 °C
Cc1cccc2c3c([nH]c12)CCC(N1CCCC1)C3 (stereo not given)	159 to 163 °C
Cc1ccc(C(=O)C(O)[C@H]2OC[C@@H](n3cc(I)c(=O)n(C(=O)c4ccc(C)cc4)c3=O)O2)cc1 (stereo not given in full)	166 to 168 °C
CS(=O)(=O)c1ccc(-c2sc(C(F)(F)F)nc2-c2ccc(F)cc2)cc1	168 to 170 °C

Structure (SMILES)	melting point
CCOc1cccc2oc(C(N)=O)cc12	113 °C
CC(=O)Nc1ccc(CSc2nc3cnccc3[nH]2)cc1	231 to 234 °C
NC(=O)c1cnn2cccc2c1NCC1CCCO1 (stereo not given)	120 °C
Nc1ccc([N+](=O)[O-])cc1OCCc1cccc2ccccc12	151 to 153 °C
Clc1cncc(Cl)c1C1=NC(c2ccc(I)cc2)CO1 (stereo not given)	90 to 92 °C
Cn1ncc(Cl)c(NCCN2CCC(c3noc4cc(F)ccc34)CC2)c1=O	108 to 109 °C
O=C1c2cccnc2CCCC1Br (stereo not given)	193 to 195 °C
N#Cc1nn(-c2c(Cl)cc(C(F)(F)F)cc2Cl)cc1C1(Cl)CC1C(F)F (stereo not given)	124 to 125 °C
CC(C)C(=O)c1cc2ccncc2[nH]1	224 to 228 °C
Cc1ccc(-c2ccc3c(c2)C=C(C=O)CCO3)cc1	132 to 133 °C
O=c1n(-c2ccc(Cl)cc2Cl)nc2n1CCCC2	100 to 104 °C
Cc1nc(-c2cccc([N+](=O)[O-])c2)sc1C(=O)O	235 to 236 °C
[N-]=[N+]=NCCc1ccc(C(N)=O)s1	104 to 105 °C
CCOc1cc(Cc2cnc(N)nc2N)cc2c1OC(C)(C)C=C2CO	187 to 189 °C
N#Cc1nn(-c2c(Cl)cc(C(F)(F)F)cc2Cl)c(N)c1-c1cccnc1	265 to 267 °C
Cc1ccc(S(=O)(=O)N2CCC[C@H]2CN2CCN(C)CC2)cc1	96.5 to 97.7 °C
COc1ccccc1-c1ccc2cnc(Nc3cccc(C4CCN(C)CC4)c3OC)nn12	74 to 89 °C
CCCOc1ccccc1-c1ncc(C(=O)OCC)c(=O)[nH]1	106 to 107 °C
O=C(O)CC1(c2ccc(F)cc2)CNC(=O)C1 (stereo not given)	174 to 176 °C
Cc1ccc2c(c1)C=Cc1cc(C)ccc1C2c1cn(Cc2ccc(C(=O)O)o2)c(=O)[nH]c1=S	290 to 292 °C
CC(=O)N1CCC(C(=O)N2CC[C@@H](N(C)C(=O)c3ccc(Br)cn3)[C@H](c3ccc(Cl)c(Cl)c3)C2)CC1	128 to 130 °C
Clc1cc(Cl)n2c(-c3ccccc3)nc(Cl)c2n1	133 to 134 °C
CN(NC(=O)c1ccccc1C(=O)O)c1nc2ccccc2o1	140 to 142 °C
O=c1[nH]c2ccccc2c(=O)n1CCN1CCC(C(O)c2ccc(F)cc2)CC1 (stereo not given)	213 °C
CCC1(C)C(=O)c2c(cc(OCC(=O)O)c(Cl)c2Cl)C1c1ccccc1 (stereo not given)	192 °C
